Test results from ChEMBL document CHEMBL1137798, “Evaluation of natural products as inhibitors of human immunodeficiency virus type 1 (HIV-1) reverse transcriptase” (J Nat Prod, 1991).
Where a name gives a salt, the structure may show the parent alone.

Legend:
[1] = target: T1, Human immunodeficiency virus type 1 reverse transcriptase (Human immunodeficiency virus 1, UniProt Q72547)
[2] = target: Human immunodeficiency virus type 1 reverse transcriptase (Human immunodeficiency virus 1) (UniProt Q72547); test: Inhibition of HIV1 RT at 200 ug/ml
[3] = target: T1, Human immunodeficiency virus type 1 reverse transcriptase; test: Inhibition of HIV1 RT using poly A oligo(dT) template primer

| Compound | IC50 ([1]; read-out: IC50 (converted)) [µM] | other results |
| --- | --- | --- |
| COc1cc2c(ccc3c4cc(OC)c(OC)cc4cnc23)cc1O | > 596 | inhibition [2]: < 10% |
| CC[C@H]1CN2CCc3cc(OC)c(OC)cc3[C@@H]2C[C@@H]1C[C@H]1NCCc2cc(O)c(OC)cc21 [CEPHAELINE DIHYDROCHLORIDE] | > 371 | inhibition [2]: 20% |
| C/C=C1/C[N+]2(C)CC[C@@]34c5ccccc5N[C@]32CCC1C4(CO)C(=O)OC (stereo partly drawn) [ECHITAMINE CHLORIDE] | > 494 | inhibition [2]: < 10% |
| COc1cc2c(ccc3c4cc(OC)c(OC)cc4c[n+](C)c23)cc1O [FAGARONINE] | 46.7 | IC50 [3]: 25.9 µM |
| COc1ccc2c(c1O)-c1c(O)c(OC)cc3c1[C@H](C2)[N+](C)(C)CC3 [MAGNOFLORINE CHLORIDE] | > 529 | inhibition [2]: < 10% |
| COc1cc2c[n+](C)c3c4cc5c(cc4ccc3c2cc1OC)OCO5 [NITIDINE CHLORIDE] | < 130 | IC50 [3]: 128 µM |
| CC[C@H]1CN2CCc3cc(OC)c(OC)cc3[C@@H]2C[C@@H]1CC1=NCCc2cc(O)c(OC)cc21 [PSYCHOTRINE] | > 430 | inhibition [2]: 20% |
| C1CCN2C[C@@H]3C[C@@H](CN4CCCC[C@@H]34)[C@H]2C1 [SPARTEINE SULFATE] | > 473 |  |
| C1CCN2C[C@@H]3C[C@@H](CN4CCCC[C@@H]34)[C@H]2C1 [SPARTEINE] | > 853 |  |
| C=C1C[C@@]23CC[C@H]4[C@@](C)(CCC[C@@]4(C)C(=O)O)[C@@H]2CC[C@]1(O)C3 [STEVIOL] | > 628 |  |
| C=C1C[C@@]23CC[C@H]4[C@@](C)(CCC[C@@]4(C)C(=O)O[C@@H]4O[C@H](CO)[C@@H](O)[C@H](O)[C@H]4O)[C@@H]2CC[C@]1(O[C@@H]1O[C@H](CO)[C@@H](O)[C@H](O)[C@H]1O[C@@H]1O[C@H](CO)[C@@H](O)[C@H](O)[C@H]1O)C3 [STEVIOSIDE] | > 248 |  |
| CC[C@H](/C=C/[C@@H](C)[C@H]1CC[C@H]2[C@@H]3CC=C4C[C@@H](O)CC[C@]4(C)[C@H]3CC[C@]12C)C(C)C [STIGMASTEROL] | > 485 |  |
| O=C(OC[C@H]1O[C@@H](OC(=O)c2cc(O)c(O)c(OC(=O)c3cc(O)c(O)c(O)c3)c2)[C@H](OC(=O)c2cc(O)c(O)c(OC(=O)c3cc(O)c(O)c(O)c3)c2)[C@@H](OC(=O)c2cc(O)c(O)c(OC(=O)c3cc(O)c(O)c(O)c3)c2)[C@@H]1OC(=O)c1cc(O)c(O)c(OC(=O)c2cc(O)c(O)c(O)c2)c1)c1cc(O)c(O)c(OC(=O)c2cc(O)c(O)c(O)c2)c1 [TANNIC ACID] | < 29.4 |  |
| COC(=O)C1=CO[C@@H](C)[C@@H]2CN3CCc4c([nH]c5ccccc45)[C@@H]3C[C@H]12 [TETRAHYDROALSTONINE] | > 567 |  |
| COc1ccc2c(c1OC)CN1CCc3cc4c(cc3C1C2)OCO4 (stereo not drawn) [TETRAHYDROBERBERINE] | > 589 | inhibition [2]: 25% |
| COc1cc2c(cc1OC)[C@@H]1Cc3ccc(OC)c(OC)c3CN1CC2 [TETRAHYDROPALMATINE] | > 563 |  |
| COc1cc2c(cc1OC)[C@@H]1Cc3ccc(OC)c(O)c3CN1CC2 [TETRAHYDROPALMATRUBINE] | > 586 | inhibition [2]: 25% |

| Compound | IC50 ([1]; read-out: IC50 (converted)) [µM] | other results |
| --- | --- | --- |
| COc1cc(C[C@H]2c3cc(OC)c(OC)cc3CCN2C)c(Oc2cc3c(cc2OC)-c2c(OC)c(OC)cc4c2[C@H](C3)N(C)CC4)cc1OC [THALICARPINE] | > 287 |  |
| C=C(C)C(O)C(O)c1cc2ccc(=O)oc2cc1OC (stereo not drawn) [THAMNOSMONIN] | > 724 |  |
| COc1cc2c(c3c1c(=S)c1ccccc1n3C)C=CC(C)(C)O2 [THIOACRONYCINE] | > 593 |  |
| O=C(/C=C/c1ccc(O)cc1)OC[C@H]1O[C@@H](Oc2c(-c3ccc(O)cc3)oc3cc(O)cc(O)c3c2=O)[C@H](O)[C@@H](O)[C@@H]1O [TILIROSIDE] | < 336 |  |
| CC1=C(O)C(=O)C=C2C1=CC=C1[C@@]2(C)CC[C@@]2(C)[C@@H]3C[C@@H](C)C(=O)[C@@H](O)[C@]3(C)CC[C@]12C [TINGENIN B] | > 458 |  |
| C[C@H]1CC[C@]2(NC1)O[C@H]1C[C@H]3[C@@H]4CC[C@H]5C[C@@H](O[C@@H]6O[C@H](CO)[C@H](O[C@@H]7O[C@H](CO)[C@@H](O)[C@H](O[C@@H]8OC[C@@H](O)[C@H](O)[C@H]8O)[C@H]7O[C@@H]7O[C@H](CO)[C@@H](O)[C@H](O)[C@H]7O)[C@H](O)[C@H]6O)CC[C@]5(C)[C@H]4CC[C@]3(C)[C@H]1[C@@H]2C [TOMATINE] | > 193 |  |
| O[C@H]1[C@H]2[C@H](O)CCCN2C[C@H]1O [TRIDOLGOSIR] | > 1150 |  |
| C[n+]1cccc(C(=O)[O-])c1 [TRIGONELLINE HYDROCHLORIDE] | > 1150 |  |
| CC[C@H]1CN2CCc3cc(OC)c(OC)cc3[C@@H]2C[C@@H]1C[C@H]1NCCc2c1[nH]c1ccc(O)cc21 [TUBULOSINE] | > 420 |  |
| COc1cc(O)c2c(=O)cc(-c3ccc(O)c(OC)c3)oc2c1 [VELUTIN] | > 636 |  |
| C/C=C(/C)C(=O)O[C@H]1CC[C@@]2(C)[C@@H]3CC[C@H]4[C@]5(O)C[C@H](O)[C@@]6(O)[C@@H](CN7C[C@@H](C)CC[C@H]7[C@@]6(C)O)[C@]5(O)C[C@]42O[C@]13O [VERATRINE] | > 338 |  |
| CC[C@]1(O)C[C@@H]2CN(CCc3c([nH]c4ccccc34)[C@@](C(=O)OC)(c3cc4c(cc3OC)N(C)[C@H]3[C@@](O)(C(=O)OC)[C@H](OC(C)=O)[C@]5(CC)C=CCN6CC[C@]43[C@@H]65)C2)C1 [VINBLASTINE] | > 247 |  |
| C/C=C1\CN2[C@H]3C[C@@]45c6ccccc6N(C)[C@@H]4[C@@H]2C[C@@H]1[C@@]3(C(=O)OC)C5O (stereo partly drawn) [VINCAMAJINE] | > 546 |  |
| CC[C@]1(O)C[C@H]2CN(CCc3c([nH]c4ccccc34)[C@@](C(=O)OC)(c3cc4c(cc3OC)N(C=O)[C@H]3[C@@](O)(C(=O)OC)[C@H](OC(C)=O)[C@]5(CC)C=CCN6CC[C@]43[C@@H]65)C2)C1 [VINCRISTINE] | > 242 |  |
| CC[C@]12CN3CCc4c([nH]c5ccccc45)[C@@](C(=O)OC)(c4cc5c(cc4OC)N(C)[C@H]4[C@@](O)(C(=O)OC)[C@H](OC(C)=O)[C@]6(CC)C=CCN7CC[C@]54[C@@H]76)C[C@@H](C3)[C@H]1O2 [VINLEUROSINE SULFATE] | > 233 |  |
| CC1(C)CC[C@]2(C)CC[C@]3(C)C(=CC[C@@H]4[C@@]5(C)CC[C@H](O)C(C)(C)[C@@H]5CC[C@]43C)[C@@H]2C1 [beta-AMYRIN] | > 469 |  |
| RAUWOLFIA SERPENTINA |  | IC50 [1]: > 200 µg/mL |
